In the oligonucleotide strings, read from the 5' end, every base follows the letter of its sugar. An asterisk marks phosphorothioate; unmarked linkages are phosphodiester. Other units and linkages are bracketed, terminal groups are in braces. A string of capitals states the bases alone. e = 2'-O-(2-methoxyethyl) (MOE); [5mC] = 5-methylcytosine; d = 2'-deoxy (DNA)
Experiments:
adipocytes = assay: Triglyceride accumulation assay in adipocytes; type: cell-based, human
aP2 = aP2 mRNA expression in adipocytes (real-time PCR); type: cell-based, human; settings: for AP2 (mRNA expression): adipocytes, 250 nM oligomeric compound, day nine post-transfection, relative to control (1.0), Table 15; for AP2 mRNA / aP2 mRNA: differentiating adipocytes transfected with oligomeric compound; for aP2 mRNA: Table 75
HSL = HSL mRNA expression in adipocytes (real-time PCR); type: cell-based, human; settings: for HSL (mRNA expression): adipocytes, 250 nM oligomeric compound, day nine post-transfection, relative to control (1.0), Table 15; for HSL mRNA: differentiating adipocytes transfected with oligomeric compound
Glut4 = Glut4 mRNA expression in adipocytes (real-time PCR); type: cell-based, human; settings: for Glut4 (mRNA expression): adipocytes, 250 nM oligomeric compound, day nine post-transfection, relative to control (1.0), Table 15; for GLUT4 mRNA: differentiating adipocytes transfected with oligomeric compound
PPARγ = PPARγ mRNA expression in adipocytes (real-time PCR); type: cell-based, human; settings: for PPAR gamma (mRNA expression): adipocytes, 250 nM oligomeric compound, day nine post-transfection, relative to control (1.0), Table 15; for PPAR gamma mRNA: differentiating adipocytes transfected with oligomeric compound
HuVECs = assay: Endothelial tube formation assay in HuVECs; settings: 75 nM oligomeric compound, Table 56
Protocol: In some embodiments, HUVECs are used to measure the effects of oligomeric compounds of the invention on endothelial tube formation activity. The tube formation assay is performed using an in vitro Angiogenesis Assay Kit (Chemicon International, Temecula, Calif.).
Untreated control cells receive LIPOFECTIN™ only.
Approximately fifty hours after transfection, cells are transferred to 96-well plates coated with ECMatrix™ (Chemicon International). Under these conditions, untreated HUVECs form tube-like structures. After an overnight incubation at 37° C., treated and untreated cells are inspected by light microscopy. Tube formation in cells treated with oligomeric compounds is compared to that in untreated control cells. Individual wells are assigned discrete scores from 1 to 5 depending on the extent of tube formation. A score of 1 refers to a well with no tube formation while a score of 5 is given to wells where all cells are forming an extensive tubular network.
In one embodiment, primary human umbilical vein endothelial cells (HuVECs) were used to measure the effects of oligomeric compounds targeted to miRNAs on tube formation activity. HuVECs were routinely cultured in EBM (Clonetics Corporation, Walkersville, Md.) supplemented with SingleQuots supplements (Clonetics Corporation, Walkersville, Md.). […] HuVECs are plated at 3000 cells/well in 96-well plates. One day later, cells are transfected with oligomeric compounds. The tube formation assay is performed using an in vitro Angiogenesis Assay Kit (Chemicon International, Temecula, Calif.).
ISIS 29248 and ISIS 196103 are chimeric 5-10-52′-MOE gapmer oligonucleotides. […] All cytidine residues are 5-methylcytidines. ISIS 342672 (SEQ ID NO: 789) contains 13 mismatches with respect to the mature mir-143 miRNA, and was also used as a negative control. ISIS 342672 is a uniform 2′-MOE phosphorothioate oligomeric compound 22 nucleotides in length. All cytidine residues are 5-methylcytidines.
Oligomeric compound was mixed with LIPOFECTIN™ (Invitrogen Life Technologies, Carlsbad, Calif.) in OPTI-MEM™ (Invitrogen Life Technologies, Carlsbad, Calif.) to achieve a final concentration of 75 nM of oligomeric compound and 2.25 μg/mL LIPOFECTIN™. Before adding to cells, the oligomeric compound, LIPOFECTIN™ and OPTI-MEM™ were mixed thoroughly and incubated for 0.5 hrs. Untreated control cells received LIPOFECTIN™ only. […] Compounds targeted to miRNAs were tested in triplicate, and ISIS 29848 was tested in up to six replicates. […] 100 μL of full growth medium was added to each well. Fifty hours after transfection, cells are transferred to 96-well plates coated with ECMa-trix™ (Chemicon Inter-national). Under these conditions, untreated HuVECs form tube-like structures.

[1] = adipocytes, 250 nM oligomeric compound, relative to control (1.0), Table 15
[2] = differentiating adipocytes transfected with oligomeric compound
[3] = differentiating adipocytes transfected with oligomeric compound, Table 75
[4] = Table 20, adipocyte differentiation assay as in Example 13

Substance: 327876 (antisense eA*eA*e[5mC]*eA*e[5mC]*eT*eG*eA*eT*eT*eT*e[5mC]*eA*eA*eA*eT*eG*eG*eT*eG*e[5mC]*eT*eA) [compound 327876]
- TG (triglyceride accumulation) (adipocytes; [1]): 0.47
- AP2 (mRNA expression) (aP2): 0.75
- HSL (mRNA expression) (HSL): 0.47
- Glut4 (mRNA expression) (Glut4): 0.36
- PPAR gamma (mRNA expression) (PPARγ): 0.57
- % Activity Relative to UTC (tube formation) (HuVECs): 50.0%

Substance: 327877 (antisense e[5mC]*eG*e[5mC]*e[5mC]*eA*eA*eT*eA*eT*eT*eT*eA*e[5mC]*eG*eT*eG*e[5mC]*eT*eG*e[5mC]*eT*eA) [compound 327877]
- TG (triglyceride accumulation) (adipocytes; [2]): 109 percentage of untreated control (UTC)
- AP2 mRNA (aP2): 77 percentage of untreated control (UTC)
- HSL mRNA (HSL): 82 percentage of untreated control (UTC)
- GLUT4 mRNA (Glut4): 119 percentage of untreated control (UTC)
- PPAR gamma mRNA (PPARγ): 85 percentage of untreated control (UTC)
- % Activity Relative to UTC (tube formation) (HuVECs): 78.6%

Substance: 327878 (antisense e[5mC]*eT*eA*eG*eT*eG*eG*eT*e[5mC]*e[5mC]*eT*eA*eA*eA*e[5mC]*eA*eT*eT*eT*e[5mC]*eA*e[5mC]) [compound 327878]
- TG (triglyceride accumulation) (adipocytes; [1]): 0.65
- AP2 (mRNA expression) (aP2): 0.85
- HSL (mRNA expression) (HSL): 0.93
- Glut4 (mRNA expression) (Glut4): 0.69
- PPAR gamma (mRNA expression) (PPARγ): 0.97
- % Activity Relative to UTC (tube formation) (HuVECs): 57.1%

Substance: 327880 (antisense eA*e[5mC]*eA*eA*eA*eT*eT*e[5mC]*eG*eG*eT*eT*e[5mC]*eT*eA*e[5mC]*eA*eG*eG*eG*eT*eA) [compound 327880]
- TG (triglyceride accumulation) (adipocytes; [1]): 0.52
- AP2 (mRNA expression) (aP2): 0.97
- HSL (mRNA expression) (HSL): 0.80
- Glut4 (mRNA expression) (Glut4): 1.11
- PPAR gamma (mRNA expression) (PPARγ): 0.53
- % Activity Relative to UTC (tube formation) (HuVECs): 57.1%

Substance: 327885 (antisense eA*e[5mC]*eT*eA*e[5mC]*e[5mC]*eT*eG*e[5mC]*eA*e[5mC]*eT*eG*eT*eA*eA*eG*e[5mC]*eA*e[5mC]*eT*eT*eT*eG) [compound 327885]
- TG (triglyceride accumulation) (adipocytes; [3]): 29 percentage of untreated control (UTC)
- aP2 mRNA (aP2): 69 percentage of untreated control (UTC)
- HSL mRNA (HSL; Table 75): 57 percentage of untreated control (UTC)
- GLUT4 mRNA (Glut4; Table 75): 40 percentage of untreated control (UTC)
- PPAR gamma mRNA (PPARγ; Table 75): 59 percentage of untreated control (UTC)
- % Activity Relative to UTC (tube formation) (HuVECs): 50.0%

Substance: 328759 (antisense eG*eA*eG*eG*eG*dA*dT*dT*dG*dT*dA*dT*dG*dA*dA*e[5mC]*eA*eT*e[5mC]*eT) [compound 328759]
- TG (triglyceride accumulation) (adipocytes; [2]): 87 percentage of untreated control (UTC)
- AP2 mRNA (aP2): 108 percentage of untreated control (UTC)
- HSL mRNA (HSL): 105 percentage of untreated control (UTC)
- GLUT4 mRNA (Glut4): 66 percentage of untreated control (UTC)
- PPAR gamma mRNA (PPARγ): 95 percentage of untreated control (UTC)

Substance: 338664 (antisense e[5mC]*eA*eG*eA*e[5mC]*eT*e[5mC]*e[5mC]*e[5mC]*eA*eA*e[5mC]*eT*eG*eA*e[5mC]*e[5mC]*eA*eG*eA) [compound 338664]
- TG (adipocytes; [4]): 1.42
- AP2 (aP2; [4]): 1.01
- HSL (HSL; [4]): 0.76
- Glut4 (Glut4; [4]): 1.81
- PPAR gamma (PPARγ; [4]): 0.86

Substance: 340350 (antisense TGCTCAATAAATACCCGTTGAA; all 2'-MOE, all phosphorothioate, methylation of C not given here) [compound 340350]
- TG (triglyceride accumulation) (adipocytes; [3]): 38 percentage of untreated control (UTC)
- aP2 mRNA (aP2): 64 percentage of untreated control (UTC)
- HSL mRNA (HSL; Table 75): 45 percentage of untreated control (UTC)
- GLUT4 mRNA (Glut4; Table 75): 53 percentage of untreated control (UTC)
- PPAR gamma mRNA (PPARγ; Table 75): 59 percentage of untreated control (UTC)

— patent publication US8178506B2, “Oligomeric compounds and compositions for use in modulation of small non-coding RNAs” (Regulus Therapeutics Inc., priority 2003, dated 2012)
